One test deals with HT1197. The test is described as follows: Antiproliferative activity against PLCgamma1 expressing human HT1197 cells. It counts as functional, cell-based.
The test system of another test is HCT-15. Put plainly: Antiproliferative activity against PLCgamma1 expressing human HCT15 cells. It is filed as functional, cell-based.
Test [1] addresses T1, 1-phosphatidylinositol 4,5-bisphosphate phosphodiesterase gamma-1 (Homo sapiens, UniProt P19174).
T1 sequence (P19174 whole entry): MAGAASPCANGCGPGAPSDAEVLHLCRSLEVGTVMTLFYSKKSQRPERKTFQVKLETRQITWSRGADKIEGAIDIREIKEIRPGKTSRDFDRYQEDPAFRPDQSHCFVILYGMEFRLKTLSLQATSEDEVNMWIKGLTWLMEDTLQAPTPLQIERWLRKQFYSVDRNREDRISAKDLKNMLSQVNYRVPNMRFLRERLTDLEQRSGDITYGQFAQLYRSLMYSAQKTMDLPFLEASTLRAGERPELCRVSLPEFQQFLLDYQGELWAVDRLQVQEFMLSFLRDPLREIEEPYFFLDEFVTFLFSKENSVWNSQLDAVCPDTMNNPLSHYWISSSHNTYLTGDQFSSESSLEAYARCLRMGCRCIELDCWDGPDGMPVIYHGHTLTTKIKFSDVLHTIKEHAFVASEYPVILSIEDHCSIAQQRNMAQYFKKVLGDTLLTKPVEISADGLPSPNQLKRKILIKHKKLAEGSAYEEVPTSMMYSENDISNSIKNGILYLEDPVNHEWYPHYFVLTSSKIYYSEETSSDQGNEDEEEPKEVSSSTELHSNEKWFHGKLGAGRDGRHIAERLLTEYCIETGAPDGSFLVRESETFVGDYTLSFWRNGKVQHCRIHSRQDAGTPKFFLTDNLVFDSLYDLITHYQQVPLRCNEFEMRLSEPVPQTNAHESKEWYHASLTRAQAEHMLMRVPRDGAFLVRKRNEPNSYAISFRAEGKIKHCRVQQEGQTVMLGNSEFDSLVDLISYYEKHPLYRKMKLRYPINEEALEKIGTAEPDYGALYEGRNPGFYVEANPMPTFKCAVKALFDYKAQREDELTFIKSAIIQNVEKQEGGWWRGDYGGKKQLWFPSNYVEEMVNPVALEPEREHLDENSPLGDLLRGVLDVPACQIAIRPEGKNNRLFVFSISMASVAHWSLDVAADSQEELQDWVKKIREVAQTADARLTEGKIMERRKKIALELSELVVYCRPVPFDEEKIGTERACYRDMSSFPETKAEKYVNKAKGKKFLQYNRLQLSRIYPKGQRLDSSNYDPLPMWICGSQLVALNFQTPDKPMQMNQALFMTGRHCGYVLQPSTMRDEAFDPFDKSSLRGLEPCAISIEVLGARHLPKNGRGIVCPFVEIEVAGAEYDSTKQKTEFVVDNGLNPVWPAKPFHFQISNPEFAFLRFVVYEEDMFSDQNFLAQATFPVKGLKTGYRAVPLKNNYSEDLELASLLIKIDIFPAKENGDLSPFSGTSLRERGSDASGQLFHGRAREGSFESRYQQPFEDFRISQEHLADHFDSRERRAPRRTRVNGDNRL
The test is described as follows: Inhibition of PLCgamma1.

A further test deals with NIH3T3. Put plainly: Inhibition of PDGF-induced phosphotidyl inositol turnover in PLCgamma1 expressing mouse NIH3T3 cells. It is filed as functional, cell-based.

What is called IC50 is the concentration needed to halve the response being measured. Read a low IC50 as inhibition by little substance.

In brackets after ≈: the same amount, converted by molar mass.

Consider `COc1cccc2c1C(=O)c1c(O)c3c(c(O)c1C2=O)C[C@@](O)(C(=O)CO)C[C@@H]3O[C@H]1C[C@H](N)[C@H](O)[C@H](C)O1` [DOXORUBICIN], for which the IC50 with HT1197 was 0.03 µg/mL (≈ 0.0552 µM); with HCT-15, 13.4 µg/mL (≈ 24.7 µM).

On to `O=c1cc(-c2ccc(O)c(-c3c(O)cc(O)c4c(=O)cc(-c5ccc(O)cc5)oc34)c2)oc2cc(O)cc(O)c12` [AMENTOFLAVONE], for which the IC50 in test [1] was found to be 29 µM; in the test on NIH3T3, 9.2 µM.
